# Article PMC3493529, “Molecular and Pharmacological Characterization of Serotonin 5-HT2α and 5-HT7 Receptors in the Salivary Glands of the Blowfly Calliphora vicina” (PLoS ONE, 2012)
# Read-outs that look alike come from different tables or passages of the source.
# Key:
# [1] = system: blowfly salivary glands; test: Transepithelial potential (TEP) of blowfly salivary glands, agonists; assay type: cell-based, Calliphora vicina; set-up: key to negative TEP phase / positive TEP phase: ++: high amplitude; +: low amplitude; -: no apparent effect; -/+: variable effect
# Description: The abdominal portions of salivary glands were dissected in physiological saline (in mM: 128 NaCl, 10 KCl, 2 CaCl2, 2.7 MgCl2, 3 Na-glutamate, 2.8 maleic acid, 10 D-glucose and 10 Tris-HCl, pH 7.2). Measurements of transepithelial potential (TEP) were performed by the oil-gap method with a DPA-2F differential amplifier (npi Electronic Instruments, Tamm, Germany). Data were sampled and digitized at 1 Hz (KUSB-3102 module for AD-conversion; Keithley, Germering, Germany) by using the software TestPoint (v4.1; Capital Equipment Corp, Billerica, MA, USA) for data acquisition and storage.
# [2] = biological target: T1, Cv5-HT7 (Calliphora vicina, UniProt I7IA71); test: cAMP-dependent CNG channel Ca2+ influx (Fluo-4) in Cv5-HT7-expressing flpTM cells, agonists; assay type: cell-based; details: for EC50 / Cv5-HT7 log EC50: Cv5-HT7-expressing flpTM cells, 100 µM IBMX
# Description: (§1) We applied a previously established protocol to generate cell lines that constitutively expressed either Cv5-HT2α or Cv5-HT7. […] (flpTM cells, provided by Sibion biosciences GmbH, Jülich, Germany). Approximately 8 µg of the respective expression vectors were introduced into ∼4×10^5 cells by a modified calcium-phosphate method. Stably transfected cells were selected in the presence of the antibiotics Blasticidin (0.1 mg/ml; Cv5-HT2α) or G418 (0.8 mg/ml; Cv5-HT7). Expression of Cv5-HT2α and Cv5-HT7 was monitored by Western blotting with commercially available anti-His antibodies (anti-6x His Epitope Tag; Rockland Immunochemicals Inc, Gilbertsville, USA) and anti-HA antibodies (clone 3F10; Roche, Penzberg, Germany), respectively.
# (§2) The ability of Cv5-HT2α to induce Ca^2+ signals in the transfected cell line was measured with the Ca^2+-sensitive dye Fluo-4. Similarly, Cv5-HT7-induced cAMP production was indirectly monitored by the cAMP-dependent activation of the cyclic nucleotide-gated ion channel in flpTM cells (see above). The cyclic nucleotide-gated ion channel is permeable to Ca^2+ ions and thus an increase in [cAMP]i leads to an influx of Ca^2+ ions, which can be detected with Fluo-4. […] After 1 h, the loading solution was substituted for dye-free ES. To inhibit cAMP hydrolysis in Cv5-HT7-expressing cells, ES containing 100 µM isobutylmethylxanthine (IBMX) was used. Plates were transferred into a fluorescence reader (FLUOstar Omega; bmg, Offenburg, Germany) and Fluo-4 fluorescence was monitored. […] Fluorescence emission was detected at 520 nm. Once the basal fluorescence in each well had reached a stable value, various concentrations of the respective ligands were added. The resulting changes in Fluo-4 fluorescence were recorded automatically.
# [3] = biological target: T2, Cv5-HT2α (Calliphora vicina, UniProt I7JA47); test: Ca2+ signals (Fluo-4) in Cv5-HT2α-expressing HEK 293 cells, agonists; assay type: cell-based; details: for effect on [Ca2+]i in Cv5-HT2α-expressing cells: 1 µM biogenic amine, non-transfected cells as control; for EC50 / Cv5-HT2α EC50 / Cv5-HT2α log EC50: Cv5-HT2α-expressing HEK 293 cells; for Cv5-HT2α EC50 / Cv5-HT2α log EC50: Ca2+-dependent Fluo-4 signal
# Description: as §1, §2
# [4] = system: salivary glands; set-up: method as in PMID 9097929; details: read-out: EC50 of Ca2+ responses in salivary glands; cited from earlier work
# [5] = biological target: T1, Cv5-HT7; test: Direct cAMP quantification (cAMP-Screen System) in Cv5-HT7-expressing cells; assay type: cell-based; details: 1 µM biogenic amine; 100 µM IBMX
# Description: The Cv5-HT7-expressing cell line was also used to determine receptor-induced cAMP production in response to various biogenic amines directly. Assays to quantify cAMP amounts were performed as described earlier by using the cAMP-Screen System (Applied Biosystems, Darmstadt, Germany).
# [6] = system: blowfly salivary glands; set-up: method as in PMID 6272697, PMID 4339528, PMID 16621952; details: cAMP formation, electrical response, luminal acidification and fluid secretion; read-out: 5-HT concentration eliciting the half-maximal effect in blowfly salivary glands; cited from earlier work
# [7] = biological target: T2, Cv5-HT2α; test: Inhibition of 5-HT-induced Ca2+ signals in Cv5-HT2α-expressing cells; assay type: cell-based
# Description: as §1, with “Cv5-HT7. For Cv5-HT2α expression, human embryonic kidney cells (HEK 293; ECACC, Salisbury, UK) were chosen.” for “Cv5-HT7.”
# (§3) The ability of Cv5-HT2α to induce Ca^2+ signals in the transfected cell line was measured with the Ca^2+-sensitive dye Fluo-4. Similarly, Cv5-HT7-induced cAMP production was indirectly monitored by the cAMP-dependent activation of the cyclic nucleotide-gated ion channel in flpTM cells (see above). The cyclic nucleotide-gated ion channel is permeable to Ca^2+ ions and thus an increase in [cAMP]i leads to an influx of Ca^2+ ions, which can be detected with Fluo-4. Cells were grown in 96-well plates to a density of ∼3×10^4 (Cv5-HT2α) or 1.5×10^4 (Cv5-HT7) and then incubated in extracellular solution (ES in mM: 120 NaCl, 5 KCl, 2 CaCl2, 2 MgCl2, 10 glucose, 10 HEPES, pH 7.4) containing 3 mM probenecid, 0.02% (w/v) Pluronic® F-127 (Sigma) and 2 µM Fluo-4AM (Invitrogen). After 1 h, the loading solution was substituted for dye-free ES. To inhibit cAMP hydrolysis in Cv5-HT7-expressing cells, ES containing 100 µM isobutylmethylxanthine (IBMX) was used. Plates were transferred into a fluorescence reader (FLUOstar Omega; bmg, Offenburg, Germany) and Fluo-4 fluorescence was monitored. The excitation wavelength was 485 nm. Fluorescence emission was detected at 520 nm. Once the basal fluorescence in each well had reached a stable value, various concentrations of the respective ligands were added. The resulting changes in Fluo-4 fluorescence were recorded automatically.
# (§4) Changes in Ca^2+-dependent Fluo-4 signals were registered automatically. Data represent the means±SD of eight replicates. […] Relative fluorescence (%) is normalized to the values obtained with 100 nM 5-HT in the absence of antagonists. […] Relative fluorescence (%) is normalized to the values obtained with 6 nM 5-HT in the absence of antagonists.
# [8] = biological target: T1, Cv5-HT7; test: Inhibition of 5-HT-induced Fluo-4 signals in Cv5-HT7-expressing cells; assay type: cell-based; details: in the presence of 6 nM 5-HT
# Description: as §1, with “Cv5-HT7. For Cv5-HT2α expression, human embryonic kidney cells (HEK 293; ECACC, Salisbury, UK) were chosen.” for “Cv5-HT7.”
# as §3, §4
# [9] = Fluo-4 signal, read-out: Cv5-HT7 EC50
# T1 sequence (I7IA71 entry or part of it): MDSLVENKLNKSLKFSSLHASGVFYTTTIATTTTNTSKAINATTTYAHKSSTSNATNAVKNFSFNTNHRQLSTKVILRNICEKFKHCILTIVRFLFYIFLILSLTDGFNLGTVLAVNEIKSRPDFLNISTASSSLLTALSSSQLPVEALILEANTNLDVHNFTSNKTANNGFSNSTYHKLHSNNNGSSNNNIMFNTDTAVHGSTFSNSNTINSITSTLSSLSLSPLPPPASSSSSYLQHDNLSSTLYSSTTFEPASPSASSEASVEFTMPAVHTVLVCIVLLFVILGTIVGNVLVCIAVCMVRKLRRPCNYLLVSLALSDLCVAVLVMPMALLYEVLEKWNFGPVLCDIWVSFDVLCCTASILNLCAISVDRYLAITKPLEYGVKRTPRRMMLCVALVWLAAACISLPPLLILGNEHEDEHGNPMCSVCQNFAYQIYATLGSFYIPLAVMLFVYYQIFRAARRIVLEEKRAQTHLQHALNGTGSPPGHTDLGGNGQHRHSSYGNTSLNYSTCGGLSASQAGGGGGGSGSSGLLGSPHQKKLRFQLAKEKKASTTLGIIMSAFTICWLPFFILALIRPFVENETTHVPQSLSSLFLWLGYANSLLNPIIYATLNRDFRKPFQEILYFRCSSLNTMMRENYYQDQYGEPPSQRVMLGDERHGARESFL
# T2 sequence (I7JA47 entry or part of it): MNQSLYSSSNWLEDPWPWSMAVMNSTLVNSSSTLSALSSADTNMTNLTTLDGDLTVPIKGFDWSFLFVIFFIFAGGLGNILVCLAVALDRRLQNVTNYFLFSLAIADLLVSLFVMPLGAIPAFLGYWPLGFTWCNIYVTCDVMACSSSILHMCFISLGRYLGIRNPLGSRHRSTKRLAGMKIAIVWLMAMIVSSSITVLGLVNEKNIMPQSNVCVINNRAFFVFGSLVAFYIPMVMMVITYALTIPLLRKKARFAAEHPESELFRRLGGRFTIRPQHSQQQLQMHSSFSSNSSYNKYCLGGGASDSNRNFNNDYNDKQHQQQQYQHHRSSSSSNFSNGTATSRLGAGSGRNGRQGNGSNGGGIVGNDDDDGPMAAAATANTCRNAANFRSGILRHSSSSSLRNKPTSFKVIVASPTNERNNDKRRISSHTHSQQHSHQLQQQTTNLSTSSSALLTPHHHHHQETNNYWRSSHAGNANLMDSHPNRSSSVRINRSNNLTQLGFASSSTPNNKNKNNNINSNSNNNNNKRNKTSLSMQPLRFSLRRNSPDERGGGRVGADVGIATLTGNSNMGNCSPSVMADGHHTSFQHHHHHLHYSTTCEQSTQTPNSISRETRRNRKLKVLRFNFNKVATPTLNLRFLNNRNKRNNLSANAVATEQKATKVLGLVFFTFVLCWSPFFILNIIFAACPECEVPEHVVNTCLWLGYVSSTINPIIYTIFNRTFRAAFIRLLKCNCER
structure (smiles),measurement,setting,value
"NCCc1c[nH]c2ccc(O)cc12 [5-HT, 5-hydroxytryptamine]",TEP change of salivary glands,[1]; 30 nM,characteristic biphasic change in the TEP
same,EC50,[2]; [9],4 nM
same,EC50,"[2]; Fluo-4 signal, read-out: Cv5-HT7 log EC50 (converted)",4.07 nM
same,effect on [Ca2+]i in Cv5-HT2α-expressing cells,[3],increase of [Ca^2+]i
same,EC50,"[3]; Cv5-HT2α EC50, Ca2+-dependent Fluo-4 signal",24 nM
same,EC50,"[3]; Cv5-HT2α log EC50, Ca2+-dependent Fluo-4 signal",24 nM
same,EC50,[4],2.8 nM
same,effect on [cAMP]i in Cv5-HT7-expressing cells,[5],rise of [cAMP]i
same,EC50,[6],1 to 6 nM
"Cc1nn(C)c(C)c1-c1cccc2c1CC[C@H](N(C)C)C2 [AS 19, (2S)-(+)-5-(1,3,5-Trimethylpyrazol-4-yl)-2-(dimethylamino)tetralin]",negative TEP phase,[1]; 100 µM,-
same,positive TEP phase,[1]; 100 µM,-/+
same,reversibility,[1]; 100 µM,yes
same,TEP change of salivary glands,[1]; 1–100 µM,only positive-going changes in the TEP
same,Cv5-HT7 log EC50,[2]; Fluo-4 signal,−6.52±0.04
same,EC50,[2]; [9],300 nM
same,Cv5-HT2α EC50,[3],no effect
same,Cv5-HT2α log EC50,[3],no effect
CCN(CC)C(=O)N[C@H]1C=C2c3cccc4[nH]cc(c34)C[C@H]2N(C)C1 [R(+)-lisuride],TEP change of salivary glands,[1]; 30 nM,irreversible positive-going TEP change
same,negative TEP phase,[1]; 0.03-0.3 µM,-
same,positive TEP phase,[1]; 0.03-0.3 µM,++
same,reversibility,[1]; 0.03-0.3 µM,no (within 20 min)
same,Cv5-HT7 log EC50,[2]; Fluo-4 signal,−8.75±0.05
same,EC50,[2]; [9],2 nM
same,efficacy at Cv5-HT7 compared to 5-HT,"[2]; highest agonist concentrations, normalized to 5-HT maximum",very low efficacy
same,Cv5-HT2α EC50,[3],no effect
same,Cv5-HT2α log EC50,[3],no effect
NCCc1ccc(O)c(O)c1 [dopamine],effect on [Ca2+]i in Cv5-HT2α-expressing cells,[3],only 5-HT led to an increase of [Ca^2+]i
same,effect on [cAMP]i in Cv5-HT7-expressing cells,[5],only 5-HT led to a rise of [cAMP]i
CC[C@@H](CO)NC(=O)[C@@H]1C=C2c3cccc4c3c(cn4C)C[C@H]2N(C)C1 [methysergide],TEP change of salivary glands,[1]; 3 µM,complex biphasic TEP responses
same,negative TEP phase,[1]; 3 µM,+
same,reversibility,[1]; 3 µM,yes
same,IC50,"[7]; Cv5-HT2α IC50, in the presence of 100 nM 5-HT",20000 nM
same,IC50,"[7]; Cv5-HT2α log IC50, in the presence of 100 nM 5-HT",19500 nM
same,EC50,"[2]; Cv5-HT7 EC50, Fluo-4 signal",770 nM
same,EC50,"[2]; Cv5-HT7 log EC50, Fluo-4 signal",776 nM
same,Cv5-HT2α EC50,[3],no effect
same,Cv5-HT2α log EC50,[3],no effect
same,Cv5-HT7 IC50,[8],agonistic effect
same,Cv5-HT7 log IC50,[8],agonistic effect
NCC(O)c1ccc(O)cc1 (stereo not shown) [octopamine],effect on [Ca2+]i in Cv5-HT2α-expressing cells,[3],only 5-HT led to an increase of [Ca^2+]i
same,effect on [cAMP]i in Cv5-HT7-expressing cells,[5],only 5-HT led to a rise of [cAMP]i
NCCc1ccc(O)cc1 [tyramine],effect on [Ca2+]i in Cv5-HT2α-expressing cells,[3],only 5-HT led to an increase of [Ca^2+]i
same,effect on [cAMP]i in Cv5-HT7-expressing cells,[5],only 5-HT led to a rise of [cAMP]i
